ChEMBL document CHEMBL4715817, “Python Cathelicidin CATHPb1 Protects against Multidrug-Resistant Staphylococcal Infections by Antimicrobial-Immunomodulatory Duality” (J Med Chem, 2018)
Converted amounts (≈) assume the structure as drawn. The source made the active and inactive calls. The calls are words filed in the database; no cut-off is given here. Peptide text beside a SMILES is read from it.

Key:
[1] = tested on: Nakaseomyces glabratus; experiment: Antimicrobial activity against Candida glabrata IS 09050201 incubated for 16 to 18 hrs by fluorescence microplate reader analysis; format: functional; conditions: time 16-18 hrs
[2] = tested on: Mus musculus; experiment: Immunomodulatory activity in mouse assessed as increase number of inflammatory monocytes in peritoneal cavity at 10 mg/kg, ip measured after 5 to 24 hrs by flow cytometry; format: functional, organism-based; conditions: time 5-24 hrs
[3] = tested on: Neutrophil; experiment: Immunomodulatory activity in neutrophils (unknown origin) assessed as inhibition of LPS-induced IL-6 level at 5 to 20 ug/ml by ELISA; format: functional, cell-based; conditions: dose 5-20 µg/ml
[4] = tested on: Macrophage; experiment: Inhibition of NFkappaB in mouse peritoneal macrophage assessed as LPS-induced IkappaBalpha degradation at 5 to 20 ug/ml pretreated for 1 hr followed by LPS stimulation measured after 30 mins by Western blot analysis; format: tissue-based; conditions: dose 20.0 µg/ml, time 1.5 hrs
[5] = tested on: Candida albicans; experiment: Antimicrobial activity against Candida albicans IS 08030809 incubated for 16 to 18 hrs by fluorescence microplate reader analysis; format: functional; conditions: time 16-18 hrs

CC[C@H](C)[C@H](NC(=O)[C@@H]1CCCN1C(=O)[C@@H](NC(=O)[C@@H](NC(=O)CNC(=O)CNC(=O)[C@@H](NC(=O)[C@H](Cc1ccccc1)NC(=O)[C@@H](NC(=O)[C@H](CCCCN)NC(=O)[C@@H](NC(=O)[C@H](CCCCN)NC(=O)[C@H](CCCCN)NC(=O)[C@H](Cc1ccccc1)NC(=O)[C@@H](NC(=O)[C@H](CCCCN)NC(=O)[C@H](CCCNC(=N)N)NC(=O)[C@H](Cc1ccccc1)NC(=O)CNC(=O)[C@H](CCCCN)NC(=O)[C@H](CCCCN)NC(=O)[C@@H](NC(=O)[C@H](CCCCN)NC(=O)[C@H](CCCNC(=N)N)NC(=O)[C@H](Cc1ccccc1)NC(=O)[C@H](Cc1ccccc1)NC(=O)[C@H](CCCCN)NC(=O)[C@H](CCCCN)NC(=O)[C@H](Cc1ccccc1)NC(=O)[C@H](CCCNC(=N)N)NC(=O)[C@@H](N)CCCCN)[C@@H](C)CC)[C@@H](C)CC)[C@@H](C)O)[C@@H](C)CC)[C@@H](C)CC)[C@@H](C)O)[C@@H](C)CC)C(=O)O (H-KRFKKFFRKIKKGFRKIFKKTKIFIGGTIPI-OH)
MIC [1]: 1.17 mg/L (≈ 0.308 µM) | Activity [2]: Active | inhibition [3]: Active | inhibition [4]: Active | MIC [5]: 1.17 mg/L (≈ 0.308 µM)
